In US20090041839A1, “PHARMACEUTICAL COMPOSITIONS FOR THE TREATMENT OF PAIN” (priority 2007, published 2009):
Where two headings read alike, the source gives them in different places.

How the values were obtained:
[1] = Single escalating dose, age and food-effect pharmacokinetic study of T-62 soft gelatin capsules (Example 11); assay type: in vivo; settings: human, plasma, po; for AUC(0-inf) / Cmax / AUC(0-t): arithmetic mean (SD); for AUC(0-t): read-out: AUC0-48; for Tmax: median
From the text: A single-center, 3-part study: Parts A and B were randomized, double-blind, and placebo-controlled, and evaluated the safety, tolerability, and pharmacokinetics of single, escalating dose levels of a T-62 composition in soft gelatin capsules (oral dosage form 4) in young healthy subjects (Part A), and a single dose of a T-62 composition in soft gelatin capsules (oral dosage form 4) in elderly healthy subjects (Part B). In Part C, the effect of food on the bioavailability of a single dose of T-62 (oral dosage form 4) in young healthy subjects was evaluated in an open label, randomized, crossover fashion.
Part A: The dose escalation phase of the study consisted of 6 cohorts of 12 young (18-45 years of age) healthy volunteers, a total of 72 subjects, randomly assigned in a 3:1 allocation to receive a single dose of either T-62 or placebo under fasted conditions. For all cohorts, subjects fasted for a minimum of 7 hours pre-dose to 4 hours post-dose. Subjects in the first cohort received a single dose of 100 mg of T-62 (n=9) or placebo (n=3). Subsequent cohorts of 12 new subjects received placebo or a higher dose level of T-62: Nine subjects in each cohort received a total of 2×100, 4×100, 8×100, 10×100 or 12×100 mg capsules of T-62; three subjects per dose level received placebo.
Part B: A total of 15 elderly subjects (≧65 years of age) were randomly assigned in a 4:1 allocation to receive a single dose of 4×100 mg of T-62 (n=12) or placebo (n=3) under fasted conditions, i.e., subjects were fasted for a minimum of 7 hours pre-dose to 4 hours post-dose.
Part C: A single cohort of 16 young (18-45 years of age) healthy volunteers were enrolled to evaluate the effect of food on the bioavailability and pharmacokinetics of a single-dose of 4×100 mg soft gelatin capsules of T-62. Subjects were randomly assigned in a 1:1 allocation to 1 of 2 treatment sequences (i.e., fed/fasted or fasted/fed) in a crossover fashion.
Each subject in Parts A and B completed Screening, Baseline, Treatment, and Follow-Up Phases. The Screening Phase was conducted on an outpatient basis within 30 days, but no less than 3 days, prior to the start of the Baseline Phase. The Baseline Phase consisted of clinical research unit (CRU) admission and final qualification assessments. The Treatment Phase was comprised of dosing, post-treatment safety assessments, and blood collections. Subjects were discharged approximately 50 hours after study drug administration on Day 3. The Follow-Up Phase occurred 2 to 4 days after discharge from the CRU.
Each subject in Part C completed a Screening Phase, Baseline and Treatment Phases for both crossover Dosing Periods I and II, and a single Follow-Up Phase. The Screening Phase was conducted on an outpatient basis within 30 days, but no less than 3 days, prior to the start of the Baseline Phase for Dosing Period I. Each Baseline Phase consisted of CRU admission and final/continuing qualification assessments. Each Treatment Phase was comprised of dosing, post-treatment safety assessments, and blood collections. T-62 was administered and post-treatment assessments were conducted on Day 1 of Dosing Period I. Subjects were discharged approximately 50 hours after study drug administration on Day 3. Following a 3-day washout, subjects crossed over and entered Dosing Period II. Subjects were re-admitted to the CRU one day before T-62 administration in Dosing Period II for Baseline assessments. T-62 was be administered and post-treatment assessments were conducted on Day 1 of Dosing Period II. Subjects were discharged approximately 50 hours after study drug administration on Day 3. The Follow-Up Phase occurred 2 to 4 days after discharge from the CRU following Dosing Period II. For each Dosing period, subjects randomized to receive T-62 under fed conditions were given a high fat breakfast on Day 1 about half an hour prior to dosing. Fasting subjects were not allowed to eat any food beginning a minimum of 7 hours pre-dose to 4 hours post-dose. […]

adenosine A1 receptors = settings: Li et al. 2003, U.S. Pat. No. 6,248,774 and No. 6,489,356, cited from earlier work
[2] = 100 mg, Part A, young healthy subjects, fasted, single oral dose 100 mg (oral dosage form 4), n = 9
[3] = 200 mg, Part A, young healthy subjects, fasted, single oral dose 2 × 100 mg (oral dosage form 4), n = 9
[4] = 400 mg, Part A, young healthy subjects, fasted, single oral dose 4 × 100 mg (oral dosage form 4), n = 9
[5] = 400 mg, Part B, elderly healthy subjects, fasted, single oral dose 4 × 100 mg (oral dosage form 4), n = 12
[6] = 400 mg, Part C, Fasted, young healthy subjects, single oral dose 4 × 100 mg (oral dosage form 4), n = 14
[7] = 400 mg, Part C, Fed, young healthy subjects, single oral dose 4 × 100 mg (oral dosage form 4), n = 16
[8] = 800 mg, Part A, young healthy subjects, fasted, single oral dose 8 × 100 mg (oral dosage form 4), n = 9
[9] = 1000 mg, Part A, young healthy subjects, fasted, single oral dose 10 × 100 mg (oral dosage form 4), n = 9
[10] = 1200 mg, Part A, young healthy subjects, fasted, single oral dose 12 × 100 mg (oral dosage form 4), n = 9

Nc1sc2c(c1C(=O)c1ccc(Cl)cc1)CCCC2 [T-62, (2-amino-4,5,6,7-tetrahydrobenzo[b]thiophen-3-yl)(4-chlorophenyl)-methanone]
AUC(0-inf) [1, 2]: 106 ng·h/mL | Cmax [1, 2]: 30 ng/mL | AUC(0-t) [1, 2]: 92.2 ng·h/mL | Tmax [1, 2]: 2 h | AUC(0-inf) [1, 3]: 242 ng·h/mL | Cmax [1, 3]: 47.7 ng/mL | AUC(0-t) [1, 3]: 224 ng·h/mL | Tmax [1, 3]: 1 h | AUC(0-inf) [1, 4]: 557 ng·h/mL | Cmax [1, 4]: 110 ng/mL | AUC(0-t) [1, 4]: 525 ng·h/mL | Tmax [1, 4]: 2 h | AUC(0-inf) [1, 5]: 1290 ng·h/mL | Cmax [1, 5]: 227 ng/mL | AUC(0-t) [1, 5]: 1200 ng·h/mL | Tmax [1, 5]: 1.8 h | AUC(0-inf) [1, 6]: 576 ng·h/mL | Cmax [1, 6]: 95.8 ng/mL | AUC(0-t) [1, 6]: 533 ng·h/mL | Tmax [1, 6]: 2.3 h | AUC(0-inf) [1, 7]: 933 ng·h/mL | Cmax [1, 7]: 154 ng/mL | AUC(0-t) [1, 7]: 884 ng·h/mL | Tmax [1, 7]: 3.5 h | AUC(0-inf) [1, 8]: 1020 ng·h/mL | Cmax [1, 8]: 165 ng/mL | AUC(0-t) [1, 8]: 978 ng·h/mL | Tmax [1, 8]: 3.5 h | AUC(0-inf) [1, 9]: 1460 ng·h/mL | Cmax [1, 9]: 213 ng/mL | AUC(0-t) [1, 9]: 1370 ng·h/mL | Tmax [1, 9]: 3 h | AUC(0-inf) [1, 10]: 1200 ng·h/mL | Cmax [1, 10]: 157 ng/mL | AUC(0-t) [1, 10]: 1110 ng·h/mL | Tmax [1, 10]: 3.5 h | Adverse side effects (adenosine A1 receptors; compared with administration of adenosine): devoid of the adverse side effects associated with administration of adenosine | Effect on inflammatory and neuropathic pain (adenosine A1 receptors; orally effective): reduce inflammatory and neuropathic pain
